“Also recorded” adds a separate entry of the source. Where two headings read alike, the source gives them in different places.

Here are results for 16 compounds from US20060122107A1 (Monash University, priority 2002, published 2006).

Series [1] in a line: Serum stability assay. Format: in vitro ADME, mouse. Conditions: for remaining at 2 h, 0.091 mg/ml: male. The method, then:
10 μL of an aqueous peptide solution containing 1 mg/ml peptide was added to 100 μl of 20% mouse serum (From adult male BL6 mice), and incubated at 37° C. for 0 min, 2 hrs and 12 hrs. At each time point samples were taken and serum proteins removed by precipitation through the addition of 40 μl of 15% TCA. Samples were stored at 4° C. for 30 min and centrifuged. Supernatants were then removed and kept on ice. 50 μl of each supernatant was analysed by RP-HPLC using 0.1% TFA in water (eluent A) and 0.09% TFA in 60% aqueous acetonitrile (eluent B) and the following gradient.
The column was a Pharmacia μRPC octadecyl silica column of […] nominal particle size and 300 Å pore size. The flow rate was 200 μl/min and UV detection was used at 214 nm, 254 nm and 280 nm. Values are given as area of peptide peak (214 nm). Peptide amounts at T=0 min were used as 100%. Peptide digests were fractionated and Electrospray ionisation (ESI) Ion Trap Mass spectrometry was used to characterise the fragmentation pattern of SIINFEKL and selected β-amino acid analogues.
Since β-amino acids are resistant to proteolysis, the influence of peptide modification on stability against proteolysis was tested by monitoring the degradation of the peptides in mouse blood serum. Degradation kinetics were followed by reverse phase-HPLC (RP-HPLC) analysis using corresponding peak area for peptide quantification. The parental SIINFEKL peptide was degraded rapidly, with only 5% of the peptide being recovered after 2 hrs. For the βC3-analogues, the amount of degradation was highly dependent on the position of the substitution. Limited stabilisation occurred for peptides with substitutions at P3 and P4 with 8% and 7% recovery respectively (FIG. 11). For the substitution at P1, 10% of the initial peak was recovered. […] For β-Phe at P5 and β-Leu at P8 over 25% of the initial peak was recovered after 2 hrs.

Series [2] addresses MHC Class I H2-K^b on cells (mouse). As to the kind of experiment: flow cytometry on RMA-S cells, with against without exogenous peptide. A general note: In flow cytometry, cells or beads pass a laser one at a time.
The nature of series [3]: 20% mouse serum (From adult male BL6 mice). Conditions: 37° C., up to 12 hrs.
For series [4], the system named is CD8^+ T cell response. Conditions: mixture of peptides intradermally, patients bearing NY-ESO^+ tumors; cited from earlier work.
In series [5] the target is HLA-A2 (Homo sapiens, UniProt P04439, D140Y/D185E/D98H/E176V/E277Q/G131W/G231S/I119V/I121R/I166T/I218V/L300P/L318F/N151K/N90K/P208A/P217A/Q86G/Q94H/R138H/R169H/T345S). To be noted: cited from earlier work.
Series [6] can be described thus: construct that expresses an ER-targeted ESO157-167.
Series [7] has as its system CTL clone HSV2.3. The series can be described thus: T-hybrid CTL recognition assay (IL-2 bioassay), control clone HSV2.3. Format: cell-based, mouse. The text has this:
(§1) The SIINFEKL/K^b-restricted CD8^+ CTL clones B3.1, GA4.2 (Nikolic-Zugic, J., and Carbone F. R. (1990). The effect of mutations in the MHC Class I peptide binding groove on the cytotoxic T lymphocyte recognition of the Kb restricted ovalbumin determinant. Eur. J. Immunol. 20:2431), 149.13.13, 149.42.12 (Clark S. R., Barnden M., Kurts C., Carbone F. R., Miller J. F., Heath J. R. Characterization of the ovalbumin-specific TCR transgenic line OT-I: MHC elements for positive and negative selection. Immunol Cell Biol. April 2000;78(2): 110-7), and the herpes simplex viral specific clone HSV2.3 (Wallace, M. E., Keating, R., Heath, W R., Carbone, F. R. 1999. […]
(§2) CTLL-2 cells were grown to ˜5×10^5 cell per ml then washed 3 times in media containing no exogenous IL-2. […] Once dry, scintillation fluid (Packard Biosciences, Melbourne) was added, then counted on a TopCount scintillation counter (Packard Biosciences, Melbourne).
(§3) CTL clones (expressing different TCR Vβ/Vα segments) restricted by the H2-K^b molecule, and specific to the SIINFEKL peptide were tested for their ability to recognise the various βC3-amino acid substituted analogues (Table X). […] CTTL-2 proliferation is then measured by 3H-Thymydine incorporation and counted on a scintillation counter.

The test system of series [8] is SIINFEKL/K^b-restricted CD8^+ CTL clones. The series can be described thus: T-hybrid CTL recognition assay (IL-2 bioassay), panel of clones. To be noted: 1 μM peptide pulsed on I-3 cells. In kind it is cell-based, mouse.
Source text: as §1, §2, §3

In series [9] the target is H2-K^b complex with Peptide 4 (βC3-Ile at P3) on cells (mouse). As to the kind of experiment: RMA-S stabilisation assay with 25-D1.16, flow cytometry.
Series [10] addresses H2-K^b complex with Peptide 2 (βC3-Ser at P1) on cells (mouse). The series is described as above.
The mark [11] stands for this setting: BL6, 20% mouse serum, 37° C., RP-HPLC peak area 214 nm, read-out: peptide recovered after 2 hrs.

As to `CC[C@H](C)[C@H](NC(=O)[C@@H](NC(=O)[C@@H](N)CO)[C@@H](C)CC)C(=O)N[C@@H](CC(N)=O)C(=O)N[C@@H](Cc1ccccc1)C(=O)N[C@@H](CCC(=O)O)C(=O)N[C@@H](CCCCN)C(=O)N[C@@H](CC(C)C)C(=O)O` [Peptide 1, SIINFEKL, reference compound], in series [1] (setting [11]), the remaining at 2 h, 0.091 mg/ml was 5%. The “serum cleavage sites (MS of fragments)” value in [1] (mouse serum) is given as “S*I*I*NF*E*KL”.

In the case of `CC[C@H](C)[C@H](NC(=O)CC(N)CO)C(=O)N[C@H](C(=O)N[C@@H](CC(N)=O)C(=O)N[C@@H](Cc1ccccc1)C(=O)N[C@@H](CCC(=O)O)C(=O)N[C@@H](CCCCN)C(=O)N[C@@H](CC(C)C)C(=O)O)[C@@H](C)CC` (stereo partly drawn) [Peptide 2], the remaining at 2 h, 0.091 mg/ml in series [1] (setting [11]) worked out at 10%.

`CCC(C)C(CC(=O)N[C@H](C(=O)N[C@@H](CC(N)=O)C(=O)N[C@@H](Cc1ccccc1)C(=O)N[C@@H](CCC(=O)O)C(=O)N[C@@H](CCCCN)C(=O)N[C@@H](CC(C)C)C(=O)O)[C@@H](C)CC)NC(=O)[C@@H](N)CO` (stereo partly drawn) [Peptide 3]: in series [1], the “resistance to proteolytic degradation” value is listed as “significant resistance”.

Turning to `CCC(C)C(CC(=O)N[C@@H](CC(N)=O)C(=O)N[C@@H](Cc1ccccc1)C(=O)N[C@@H](CCC(=O)O)C(=O)N[C@@H](CCCCN)C(=O)N[C@@H](CC(C)C)C(=O)O)NC(=O)[C@@H](NC(=O)[C@@H](N)CO)[C@@H](C)CC` (stereo partly drawn) [Peptide 4], the “serum cleavage sites (MS of fragments)” value in series [1] is recorded as “no cleavage at the P2-P3 bond”. For the same compound, in series [1] (BL6, mouse, serum), the remaining at 2 h, 0.091 mg/ml amounted to 8%.

As to `CC[C@H](C)[C@H](NC(=O)[C@@H](NC(=O)[C@@H](N)CO)[C@@H](C)CC)C(=O)NC(CC(N)=O)CC(=O)N[C@@H](Cc1ccccc1)C(=O)N[C@@H](CCC(=O)O)C(=O)N[C@@H](CCCCN)C(=O)N[C@@H](CC(C)C)C(=O)O` (stereo partly drawn) [Peptide 5], the remaining at 2 h, 0.091 mg/ml in series [1] (BL6, mouse, serum) is 7%.

With `CC[C@H](C)[C@H](NC(=O)[C@@H](NC(=O)[C@@H](N)CO)[C@@H](C)CC)C(=O)N[C@@H](CC(N)=O)C(=O)NC(CC(=O)N[C@@H](CCC(=O)O)C(=O)N[C@@H](CCCCN)C(=O)N[C@@H](CC(C)C)C(=O)O)Cc1ccccc1` (stereo partly drawn) [Peptide 6, SIINβFEKL], in series [1], the “full peptide at t=12 hrs” value is “disappeared” and the “serum cleavage sites (MS of fragments)” value is recorded as “cleavage did not occur after the P5 amino acid”. In [1] (BL6, mouse, serum), this compound gave a remaining at 2 h, 0.091 mg/ml above 25%.

Regarding `CC[C@H](C)[C@H](NC(=O)[C@@H](NC(=O)[C@@H](N)CO)[C@@H](C)CC)C(=O)N[C@@H](CC(N)=O)C(=O)N[C@@H](Cc1ccccc1)C(=O)N[C@@H](CCC(=O)O)C(=O)N[C@@H](CCCCN)C(=O)NC(CC(=O)O)CC(C)C` (stereo partly drawn) [Peptide 8, SIINFEKβL], the remaining at 2 h, 0.091 mg/ml in series [1] (setting [11]) was above 25%. In addition, the “resistance to proteolytic degradation” value in series [1] (mouse serum, 2 hrs, listed as P8) is “significant resistance; also recorded: most stable”.

On to H2-K^b specific monoclonal antibody Y-3, for which, in series [2], the fold increase in surface K^b staining with exogenous peptide was 50 fold.

On to SIINFEKL, for which the cleaved bond entry in series [3] is listed as “S-I, 2 hrs; also recorded: I-N, 2 hrs; also recorded: F-E, 2 hrs; also recorded: E-K, 2 hrs”.

As to SLLMWITQC [ESO157-165], the “CD8^+ T cell response after peptide vaccination” value in series [4] is “later and at a lower level”. Further, the “binding to HLA-A2” value in [5] was “poor binding”.

Take SLLMWITQCFL: in [6], the fragment found entry is recorded as “ESO157-165; also recorded: ESO159-167”.

With “SLLMWITQCFL [ESO157-167, NY-ESO 157-167 HLA-A*0201-restricted determinant]”, the “CD8^+ T cell response after peptide vaccination” value in series [4] is given as “vigorous”.

On to “SSIEFARL [peptide recognised by the Herpes Simplex Virus specific control clone HSV2.3]”, for which the “recognition by control clone HSV2.3” value in series [7] is recorded as “mainly mediated”. Besides, the “CTL recognition by the clones” value in series [8] is “not recognised”.

On to Ser Ile Ile Asn β^c3Phe Glu Lys Leu, for which, in series [3], the not cleaved result was “At t=12 hrs the full peptide has disappeared leaving only fragments”.

Regarding Ser Ile β^c3Ile Asn Phe Glu Lys Leu, the not cleaved entry in series [3] was “At t=2 hrs most of the full peptide has disappeared”.

For the compound monoclonal antibody 25-D1.16, the fold increase in peptide concentration to reach the same level of recognition as SIINFEKL in series [9] and in series [10] was 100 fold each time.
